Experimental data as given in patent publication US9351963B2, “Defensin-like molecules as novel antimicrobial agents” (UNIVERSITY OF MARYLAND, BALTIMORE, priority 2010, dated 2016).

Experiments:
[1] = Surface Plasmon Resonance binding to immobilized 3-Lipid II (BIAcore); conditions: SPR, 10 μM, room temperature, 40 RUs 3-Lipid II
Experimental: Short-chain water-soluble Lipid II containing a lipid tail of three isoprene units was generated and purified essentially as described (Breukink, E., van Heusden, H. E., Vollmerhaus, P. J., Swiezewska, E., Brunner, L., Walker, S., Heck, A. J., and de Kruijff, B. (2003) J Biol Chem 278, 19898-19903). Typically, M. flavus vesicles (120 μmol lipid-Pi) were incubated together with 500 μmol UDP-GlcNAc, 500 μmol UDP-MurNAC-pentapeptide and 400 μmol farnesyl phosphate (3-P) in 100 mM Tris-HCl pH 8.0, 5 mM MgCl2. The incubation lasted two hours at room temperature for 3-P. The synthesis of 3-Lipid II was followed using RP-8 reversed phase TLC (Merck) developed in 75% methanol. For purification, the membranes were removed by centrifugation at 40,000×g and the supernatant was collected and loaded on a C18 HPLC column and eluted with a linear gradient from 50 mM ammonium bicarbonate to 100% methanol in 30 minutes. Farnesyl-Lipid II (3-Lipid II) eluted at approximately 60% methanol. Its identity was confirmed by mass spectroscopy.
Surface Plasmon Resonance binding experiments were carried out on a BIAcore T100 system (BIAcore Inc., Piscataway, N.Y.) at 25° C. The assay buffer was 10 mM HEPES, 150 mM NaCl, 0.05% surfactant P20, pH 7.4 (±3 mM EDTA) supplemented with 10% DMSO. […] For initial determination of binding, defensin mimetics were introduced into the flow-cells (30 μl/min) in the running buffer at 10 μM. Resonance signals were corrected for nonspecific binding by subtracting the background of the control flow-cell. After each analysis, the sensor chip surfaces were regenerated with 50 mM NaOH for 30 s at a flow rate 100 μl/min, and equilibrated with the buffer prior to next injection. For binding kinetics studies, binding isotherms were analyzed with manufacturer-supplied software for BIAcore T100.

[2] = test system: Escherichia coli ATCC 25922; assay: 96-well turbidimetric antibacterial killing assay, E. coli; type: cell-based; conditions: E. coli ATCC 25922, 120 min exposure
Experimental: The antibacterial activity of defensin mimetics against Staphylococcus aureus ATCC 29213 and Escherichia coli 25922 was carried out in a 96-well turbidimetric assay essentially as described (Ericksen, B., Wu, Z., Lu, W., and Lehrer, R. I. (2005) Antimicrob Agents Chemother 49, 269-275) with the following modifications: compounds were exposed for 30 min to […] prior to addition of […] in 10 mM phosphate buffer containing 5% DMSO. Bacterial growth was monitored for 12 hours and data were analyzed as described (Ericksen, et al). Determination of MICs was performed by Micromyx, LLC (Kalamazoo, Mich.) according to CLSI standards (CLSI. (2009) Methods for Dilution Antimicrobial Susceptibility Tests for Bacteria That Grow Aerobically; Approved Standard—Eighth Edition.)
The inventors have previously reported on the antibacterial activity of HNP1 and all of its structurally uncompromised single alanine mutants against S. aureus (Wei, G., Pazgier, M., de Leeuw, E., Rajabi, M., Li, J., Zou, G., Jung, G., Yuan, W., Lu, W. Y., Lehrer, R. I., and Lu, W. J Biol Chem 285, 16275-16285). […] If these residues are indeed important for Lipid II binding, one would expect that replacement by alanine will not affect killing of Gram-negative bacteria. […] In particular, FIG. 12 depicts killing of E. coli by HNP-1 Lipid II single alanine mutants. Survival curves of E. coli ATCC 25922 exposed to HNP-1 or HNP-1 single alanine mutants at concentrations varying two-fold from […]. Bacteria were exposed to defensin peptides for 120 min. Each curve is the mean of two separate experiments (±S.D.). Points scored as zero survival could not be plotted.

[3] = test system: Staphylococcus aureus ATCC 29213; conditions: previously reported (Wei et al., J Biol Chem 285); cited from earlier work

Row | Substance | Binding of HNP-1 single alanine mutants to Lipid II compared to wild-type HNP-1 [1] | Bactericidal activity against E. coli relative to wild-type HNP-1 [2] | Killing of S. aureus by HNP-1 single alanine mutants [3]
1 | Ile20: HNP-1 single alanine mutant, Ile20 replaced by alanine | significant reduction of binding | comparable to the wild-type peptide | severely compromised
2 | Leu25: HNP-1 single alanine mutant, Leu25 replaced by alanine | significant reduction of binding | comparable to the wild-type peptide | severely compromised
